This is an account of results in patent US20050049273A1, “Acridone derivatives as anti-herpesvirus agents” (priority 2003, published 2005).

In data set [1] the test system is Epstein-Barr Virus (EBV) early antigen. As to conditions: published work; cited from earlier work.
Data set [2] has as its system HCMV. In words: HCMV cytopathogenicity (CPE) reduction assay in HEL cells. Format: cell-based, HCMV (Towne). An excerpt: (§1) To examine whether pre-treatment of cells influenced anti-HCMV activity of 1-hydroxy-3,7-dimethoxyacridone (2), a cytopathogenicity (CPE) reduction assay was used. The protocol was like the plaque-elimination assay except HEL cells were replicated in test compound (3-12 days or from 1-4 passages) prior to infection, cultures were infected with 500-1000 PFU HCMV and after five days, cells were stained with 0.8% (w/v) crystal violet in 50% ethanol in order to achieve contrast for photography.

Another data set deals with HSV-1. In words: HSV-1 viral yield-reduction assay in Vero cells. Format: cell-based, HSV-1 (KOS). The settings on record: Human alphaherpesvirus 1, Vero, read-out: ED50 HSV-1. On the procedure: (§2) Three types of antiviral assay were used for HSV studies. For plaque-elimination, Vero cells (70000 per cm^2) were infected with 50-100 PFU for 30 minutes with occasional agitation. The inoculate was replaced with medium containing 1% (v/v) fetal calf serum and supplemented with test agents as indicated (see below). After two days of culture, cells were processed using crystal violet staining and plaques were scored by visual examination (FIG. 3). For examination of anti-HSV activity in parallel cultures during biochemical experiments, the progeny virus obtained from cells and from the culture medium at 23 hours post-infection was determined by limiting dilution on Vero cells (FIG. 5A). Macroscopic viral plaques were scored after two days of incubation in medium containing 1% (w/v) carboxymethylcellulose and 0.5% (v/v) fetal calf serum. For ED50 measurements, the concentration of compound that reduced a single-cycle of viral yield by 50% relative to the control and under the specified condition was interpolated from dose-response graphs (FIG. 4, Table 1). Over the course of ten independent experiments, the mean cell-associated viral yield was 180 PFU per cell (SD=80) and 10 PFU per cell (SD=5) for HSV-1 and HSV-2 respectively. The percent viral release (into the culture medium) was 16 (SD=7) and 0.9 (SD=0.6) for HSV-1 and HSV-2 respectively. These virologic parameters were independent of viral load and serum concentration.

Data set [3] in a line: Vero cell growth inhibition (Sulforhodamine B protein-dye binding). The format is cell-based, African green monkey. As to conditions: African green monkey; cell growth inhibition, two days of continuous treatment; read-out: CC50 Vero. The method, then:
(§3) The effect of compounds on host cell replication (CC50), was measured using Sulforhodamine B-staining and the spectrophotometric method originally developed for the NCIs's in vitro anti-cancer drug screening program (P. Skehan et al., J. Natl. Cancer. Inst. 82, 1107-1112 (1990)). The CC50 value is the concentration of compound that inhibited actively replicating cells by 50% of control respectively after two days of continuous treatment.

The next data set has as its system Vero. Described as above. The format is cell-based, African green monkey. On the procedure:
as §3

Another data set relates to HEL. In words: HEL cell growth inhibition (Sulforhodamine B protein-dye binding). As to conditions: at 50 μM. The format is cell-based, human. On the procedure:
as §3

Test in data set [4]: as above
As to conditions: human; cell growth inhibition, two days of continuous treatment. Format: cell-based, human. On the procedure: as §3

A further data set concerns HEL Cells. In words: HEL cells replicated in presence of compound for 12 days (morphology, replication rate). Format: cell-based, human. The settings on record: 0.5 or five micromolar for 12 days (four passages).
Description: HEL Cells were replicated in the presence of either 0.5 or five micromolar compound 2 for 12 days (four passages) then they were compared to untreated HEL cells as a host for HCMV replication in the presence or absence of the drug. […] Cultures were infected with ten-times the viral load used for plaque assay and were fixed, stained and photographed after seven days of infection (panel B). A detailed method is described in the examples below. The horizontal rows labeled as HEL, HEL (0.5) and HEL (5.0) represent cells cultured in the absence or presence of 0.5 and 5 micromolar 2 respectively. Labeled columns indicate mock-infected (M), infected (I) and treated after viral infection with the same two concentrations of the compound.
as §1

Data set [5] deals with HSV-2. In words: HSV-2 viral yield-reduction assay in Vero cells. The format is cell-based, HSV-2 (strain 186). As to conditions: Human alphaherpesvirus 2, Vero, read-out: ED50 HSV-2. On the procedure: as §2
Data set [6] concerns HSV-2. Put plainly: HSV-2 plaque-elimination assay in Vero cells. Format: cell-based, HSV-2 (strain 186). The settings on record: 100 μM, data not shown. On the procedure:
as §2

In data set [7] the test system is an assortment of human tumor cell lines. Put plainly: Replication of human tumor cell lines. Format: cell-based. The settings on record: at 50 μM, data not shown. On the procedure: as §3
Data set [8] concerns HCMV. Put plainly: HCMV plaque-elimination assay in HEL cells. The format is cell-based, HCMV (Towne). On the procedure:
Virus and cell growth inhibition assays. Established virus culture techniques were used (E.-S. Huang, and T Kowalnick, Diagnosis of human cytomegalovirus infection: laboratory approaches, in Molecular Aspects of Human Cytomegalovirus Diseases (Becker,Y., Daria, G., and Huang, E.-S. eds.), Springer-Verlag, Berlin, pp. 225-255 (1993); Akanitapichat et al., Antiviral Research 45: 123-134 (2000)) but with the following modifications. For the HCMV plaque-elimination assay, HEL cells were plated in standard medium at 60,000 per cm^2 and infected the following day with 50-100 PFU HCMV for 90 minutes with occasional agitation. The inoculate was replaced with maintenance medium containing 5% (v/v) fetal calf serum and test agents as indicated (see below). After an additional 6-10 days of culture, cells were fixed with formal saline (10% formalin in phosphate-buffered saline; PBS), stained with 0.1% (w/v) toluidine blue in PBS and plaques were scored using an inverted light microscope at 40x magnification (FIGS. 2A and 3). For ED50 determination, the value was interpolated from dose-response data and is the concentration of compound that reduced plaque formation by 50% relative to control under the specified condition.

As to 5-hydroxynoracronicine, the “concentration blocking activation of EBV early antigen” value in data set [1] was “submicromolar concentration”.

Take `COc1cc(O)c2c(=O)c3cc(OC)ccc3[nH]c2c1` [Compound 2, 3,7-dimethoxy-1-hydroxy-acridone]: the “amelioration of HCMV cytopathogenicity after pre-treatment” value in the data set on HCMV [2] (HEL cells cultured 12 days in 0.5 μM before infection) is given as “some amelioration of HCMV cytopathogenicity”. Also, in the data set on HCMV [2] (HEL cells cultured 12 days in 5 μM before infection), the “protective effect against HCMV cytopathogenicity after pre-treatment” value is reported as “even apparent in the absence of sustained treatment post-infection”. Moreover, the “protection against HCMV cytopathogenicity” value with HCMV [2] (higher viral loads, with or without pretreatment of HEL cells) was “did not protect against HCMV cytopathogenicity unless HEL cells were pretreated prior to viral infection”. The EC50 in the data set with HSV-1 was above 50 µM; with HSV-2 [5] it was above 50 µM; with HCMV [8] (Human betaherpesvirus 5, HEL, read-out: ED50 HCMV), 1.4 µM. Further, the CC50 at 2 days in data set [3] and in [4] was above 50 µM in each case. Further, in the data set on Vero (at 50 μM), the “inhibition of Vero cell replication” value is “inactive”. Besides, the “percent inhibition observed at the highest concentration tested, Vero growth” value in the data set on Vero (number in parenthesis, highest concentration tested) is given as 7%. Besides, the “inhibition of HEL cell replication” value with HEL is “inactive”. Also, the “effect on cell morphology and cell viability” value in the data set with HEL Cells is “no effect on cell morphology or cell viability”. In addition, the “effect on HSV at highest concentration tested” value in the data set with HSV-2 [6] was “without effect on HSV”. In [7], the “inhibition of human tumor cell line replication” value is “inactive”. In addition, the “selectivity as anti-HCMV agent” value with HCMV [8] (cell replication vs HCMV ED50) is recorded as “greater than 35 fold”.
